The numbers were not newly measured in patent publication US20230143212A1 (Navinta, LLC, priority 2021, published 2023), which cites them from elsewhere.

The conditions of data set [1]: ethyl alcohol, DMSO, propylene glycol, polyethylene glycol, glycerol, dimethylformamide.
The conditions of data set [2]: for solubility in propylene glycol/water: 25° C.
The conditions of data set [3]: orally administered.
The conditions of data set [4]: rabbits; composition in polyethylene glycol-300 with and without bile salt.

Values joined by “and” are separate entries in the source; they are usually repeats but may differ in a detail not shown here. Equal entries are not always repeated. Where two headings read alike, the source gives them in different places.

Regarding `COc1ccc2[nH]cc(CCNC(C)=O)c2c1` [Melatonin, N-[2-(5-Methoxy-1H-indol-3-yl)ethyl] acetamide], in data set [1], the “solubility in organic solvents” value is given as “soluble”. Besides, in data set [2] (60% v/v propylene glycol), the “solubility in propylene glycol/water” value was “about 250 mM and 60 mg/ml”. In data set [2] (until reaching 40% v/v propylene glycol), the “solubility in propylene glycol/water” value is “up to 50 mM and ~ 12 mg/ml”. For the same molecule, the “pH dependence of solubility in water” value in data set [2] (water) is recorded as “pH-independent solubility”. In data set [3], the “Plasma T½” value is ~ 50 minutes, the oral absorption entry is reported as “almost completely absorbed” and the oral bioavailability was ~ 15%. For the same molecule, the “bioavailability via intranasal route” value in data set [4] is reported as “increased substantially”.
